Columns and labels:
[1] = in vivo; settings: beagle, dog, plasma
Protocol: (§1) A study was conducted in dogs to determine the pharmacokinetics and bioavailability of a buccal formulation of carbocysteine in comparison to oral and IV routes of administration.
(§2) The study was conducted according to the following methodology. A 400 mg dissolving tablet, a 400 mg oral tablet, and a 200 mg IV dose of carbocysteine were administered to each of five beagle dogs in a randomized crossover pattern. […] The dissolving tablet was administered to the animal by placing the tablet in the mouth until it dissolved. The oral tablet was administered by forcing the animal to swallow the tablet. […] Plasma concentrations were measured by precolumn derivatization of S-carboxymethylcysteine using o-phthaldialdehyde (OPA) and subsequent HPLC analysis. All data were analyzed using WinNonlin®, a tool for pharmacokinetic and pharmacodynamic analysis. The carbocysteine plasma data was fitted to a one-compartment model with first-order elimination. The pharmacokinetic parameters (t1/2, CL, Vd) generated from each route of administration were compared using analysis of variance (ANOVA) to detect statistically significant differences. A paired t-test was used to detect the differences in Cmax, Tmax, Ka, and F between buccal and oral routes of administration.

[2] = Buccal availability study: pharmacokinetics and bioavailability of carbocysteine in dogs (buccal vs oral vs IV); settings: beagle dogs; range across buccal and oral routes; no significant differences
Protocol: as §1, §2

SMILES: N[C@@H](CSCC(=O)O)C(=O)O [carbocysteine, S-carboxymethyl-L-cysteine]
- Vd [1]: 0.405 to 0.418 L/kg
- clearance [1]: 4.52 to 4.64 mL/min/kg
- half-life [1]: 1.02 to 1.07 h
- Tmax ([1]; 400 mg): 1.5 to 1.55 h
- Ka [2]: 0.028−0.034 min^−1
